Test: Aggregate number from ratio of molecular weights at pH 7 and pH 13 (GPC fractions)
Format: physicochemical
Procedure: The aggregate number of a β-glucan sample under a specified set of conditions can be determined by determining the average molecular weight of the polymer under those conditions. The β-glucan is then denatured, that is, subjected to conditions which separate any aggregates into their component single polymer chains. The average molecular weight of the denatured polymer is then determined. The ratio of the molecular weights of the aggregated and denatured forms of the polymer is the aggregate number. A typical β-glucan composition includes molecules having a range of chain lengths, conformations and molecular weights. Thus, the measured aggregate number of a β-glucan composition is the mass average aggregate number across the entire range of β-glucan molecules within the composition. […] For example, a measured aggregate number of about 6 or more is characteristic of a composition in which the β-glucan is substantially in the triple helix aggregate conformation. […]
The molecular weights of fractions A and C were determined at 25° C. at both pH 7 and pH 13, and at 37° C. at pH 7. […] Thus, at a given temperature the ratio of the molecular weights determined at pH 7 and pH 13 is the aggregate number at pH 7 at that temperature. […]

aggregate number (pH 7, 25° C.): about 3
aggregate number (pH 7, 37° C.): about 3
Substance: scleroglucan
